Where “and” joins values, the source holds several entries; their conditions need not be identical. Equal values may be shown once. Entries after “also recorded” stand apart in the source; their conditions may differ. One block for each molecule: values may come before it.
How the values were obtained:
Male Wistar rats = assay: PAG measurement by 1H NMR in urine after single oral dose, ratio versus time-matched controls; format: in vivo, rat; conditions: for PAG: urine, individual animals; for dose dependant change of PAG levels in urine: normalized to time matched controls
Description: (§1) All animals received (human) care as specified by Swiss law and in accordance with the “Guide for the care and use of laboratory animals” published by the NIH. Male Wistar rats (5 animals/dose-group) were purchased from RCC (Füllingsdorf, Switzerland) and housed individually. Treated animals were dosed orally by gavage with several doses of test compounds (Table 1). Control animals received the same volume of vehicle as placebo. Necropsy was performed 48 (subgroup A) or 168 hours (subgroup B) after a single administration (=Day 1) and urine samples were collected in metabolism cages at 0 to 4° C. (automatically refrigerated by a Tecniplast sampling/cooling unit (RACK B940, Tecniplast, USA)) at the intervals given in the sampling schedule in Table 2 into labelled sample tubes containing 1 ml of an aqueous Na-azide (1%) solution. Before aliquoting, urine volumes were determined.
Urine samples were taken on day -7,-2,-1, 1, 2, 3, 4, 5, 6 and 7, whereby Day 1 was the Day of dosing.
Immediately after reaching the end of the sampling period, the volume was determined and the samples were centrifuged at 3000 u/min (500 g) for 10 minutes.
Aliquot: Approximately 2 ml was transferred in 1.8 ml cryvials, round bottom, freestanding, with screw caps and septum for NMR-spectroscopic examinations (Bruker Analytik GmbH, Rheinstetten, Germany, Bruker part No. 85372). The vials were stored at −80° C.
Urine samples were prepared and measured on a Bruker 500 MHz NMR instrument according to the COMET 1H-NMR protocol (Keun, H. C et al., (2002) Physiological variation and analytical reproducibility in metabonomic urinalysis. Chem. Res. Tox. 15, 1380-1386) and as described above. In total 467 urine samples were analyzed. After measurement, all data were processed by XWINMR 3.5.6 (Bruker Biospin AG, Fällanden). Representative spectra are depicted in FIG. 2. Phase correction and baseline correction were performed with NMRPROC 0.3 (T. Ebbels, H. Keun; Imperial College). Spectral data were binned using AMIX 2.6 (Bruker Biospin AG, Fällanden) following the COMET Data Processing & Pattern Recognition protocol (Keun, H. C., et al., (2002) Physiological variation and analytical reproducibility in metabonomic urinalysis. Chem. Res. Tox. 15, 1380-1386). QC check procedures (Dieterle F., Ross A., Schlotterbeck G., Senn H. (2006) Probabilistic Quotient Normalization as Robust Method to Account for Dilution of Complex Biological Mixtures. Application in 1H NMR Metabonomics. Anal. Chem. 78, 4281-4290) were applied on binned data to detect outliers. In total 7 outliers were detected and removed from further analysis. All data were mean-centered and normalized using the probabilistic quotient normalization (Dieterle F., Ross A., Schlotterbeck G., Senn H. (2006) Probabilistic Quotient Normalization as Robust Method to Account for Dilution of Complex Biological Mixtures. Application in 1H NMR Metabonomics. Anal. Chem. 78, 4281-4290.). All binned data were annotated and transferred to the ANT (ANT: Affymetrix NMR Toxicology Data System) database.
The exact PAG quantification was performed according to following procedure: • Baseline subtraction of spectra • Integration of PAG peaks ((=7.47 ppm, (=7.39 ppm, (=3.79 ppm, and (=3.7 ppm respectively) and Citrate region ((=2.66-2.74 ppm and 2.50-2.58 ppm). • Quotient normalization (Dieterle F., Ross A., Schlotterbeck G., Senn H. (2006) Probabilistic Quotient Normalization as Robust Method to Account for Dilution of Complex Biological Mixtures. Application in 1H NMR Metabonomics. Anal. Chem. 78, 4281-4290.) • Divide each of the PAG bins by its average (all spectra) to correct for different relaxation times and number of protons • Calculate median out of the PAG bins • Calculate ratio versus time-matched controls

basic pKa value = format: physicochemical
[1] = potential to induce phospholipidosis judged from amphiphilicity and basic pKa; conditions: from reduced amphiphilicity and basic pKa
Description: The structural difference between both molecules can be mainly characterized by the exchange of the piperazine against a morpholine moiety in compound 2.

lymphocytes = assay: Electron microscopic examination of buffy coat lymphocytes for lamellar bodies (determination of phospholipidosis); format: in vivo, rat; conditions: for Result, PL (grade of severity of phospholipidosis) / lymphocytes %, pos. / lymphocytes positive (with lamellar bodies): individual rats; for lymphocytes containing cytoplasmic lamellar bodies (finding in words): rats, single oral dose, necropsy 48 or 168 hours after application
Description: as §1
Blood samples (as much as possible) were withdrawn from all animals at necropsy at about 48 hours after dosing (subgroup A) and about 168 hours after dosing (subgroup B)
The samples were collected from the abdominal aorta or by cardiac puncture under terminal anaesthesia (CO2). A total of at least 2 ml blood was required to gain buffy coat (buffy coat=leukocyte band) samples.
After fixation in 2.5% glutaraldehyde, the buffy coat samples from all animals were embedded in Epon. […] All thin sections were examined ultrastructurally. If possible, 200 lymphocytes per sample were examined for lamellar bodies. The results per sample include the total number of lymphocytes examined, the total number of positive lymphocytes (i.e. with lamellar bodies), the percentage of positive lymphocytes and a grading of severity of phospholipidosis (criteria see table 4)

[2] = High_Dose group, Time 0 (within 8 hours before treatment)
[3] = High_Dose group, Time 8 (within 8 hours after treatment)
[4] = High_Dose group, Time 24 (within 8 to 24 hours after treatment)
[5] = High_Dose group, Time −16 (1 day before treatment)
[6] = Low_Dose group, Time 0 (within 8 hours before treatment)
[7] = Low_Dose group, Time 8 (within 8 hours after treatment)
[8] = Low_Dose group, Time 24 (within 8 to 24 hours after treatment)
[9] = Low_Dose group, Time 48 (2 days after treatment)
[10] = Low_Dose group, Time −16 (1 day before treatment)
[11] = rat, low-dosed animals (300 mg/kg)
[12] = rat, single oral dose, both dose groups
[13] = 300 mg/kg/day, necropsy 168 hours after application
[14] = 300 mg/kg/day, necropsy 48 hours after application, 300 mg/kg/day
[15] = 300 mg/kg/day, necropsy 168 hours after application, 300 mg/kg/day
[16] = 1500 mg/kg/day, necropsy 48 hours after application, 1500 mg/kg/day
[17] = 1500 mg/kg/day, necropsy 168 hours after application, 1500 mg/kg/day
[18] = 1000 mg/kg/day, necropsy 48 hours after application
[19] = 1000 mg/kg/day, necropsy 168 hours after application

increase of mean PAG levels compared to time matched controls (Male Wistar rats; rat, high-dosed animals (1500 mg/kg)): 4 fold
mean PAG levels remaining elevated until the end of the study (Male Wistar rats; rat, high-dosed animals (1500 mg/kg), until 168 h): 3-4 fold
increase of mean PAG levels compared to time matched controls (factor) (Male Wistar rats; [11]): two
mean levels of PAG at time points later than 72 h (Male Wistar rats; [11]): fall below control samples
start of PAG elevation after dosing (Male Wistar rats; [12]): 24 h
dose dependant change of PAG levels in urine (Male Wistar rats; [12]): significant dose dependant elevation
pKa (basic pKa value): 7.67
SMILES: Cc1ccccc1-c1cc(N2CCN(C)CC2)ncc1N(C)C(=O)C(C)(C)c1cc(C(F)(F)F)cc(C(F)(F)F)c1 [Compound 1, 2-(3,5-Bis-trifluoromethyl-phenyl)-N-methyl-N-[6-(4-methyl-piperazin-1-yl)-4-o-tolyl-pyridin-3-yl]-isobutyramide]
PAG (Male Wistar rats; [2]): 0.3099 and 0.4951 and 0.2661 and 0.1961 and 0.1580 and 0.3419 and 0.1895 and 0.2711 and 0.3305 and 0.4159
PAG (Male Wistar rats; [3]): 0.8523 and 0.4093 and 0.7986 and 0.5172 and 0.2995 and 0.4361 and 0.5473 and 0.4307 and 1.0174 and 0.3275
PAG (Male Wistar rats; [4]): 1.7579 and 1.3035 and 1.4190 and 0.4001 and 0.8788 and 1.2898 and 1.4210 and 1.9488 and 1.6305 and 1.2496
PAG (Male Wistar rats; [5]): 0.7486 and 0.5615 and 0.6169 and 0.5637 and 0.4281 and 0.4828 and 0.2993 and 0.4535 and 0.5361 and 0.5442
PAG (Male Wistar rats; High_Dose group, Time −144 (7 days before treatment)): 0.7666 and 0.8823 and 1.0974 and 0.6021 and 1.2709 and 1.0355
PAG (Male Wistar rats; [6]): 0.3142 and 0.2440 and 0.3422 and 0.2530 and 0.3700 and 0.6319 and 0.3708 and 0.3307 and 0.2336
PAG (Male Wistar rats; [7]): 1.1423 and 0.5270 and 0.3918 and 0.5331 and 0.6815 and 0.2977 and 0.6756 and 0.7527 and 0.4111 and 0.3688
PAG (Male Wistar rats; [8]): 0.6300 and 0.8072 and 1.0165 and 0.7250 and 0.5035 and 0.6637
PAG (Male Wistar rats; [9]): 0.7584 and 0.6368 and 0.9878 and 0.6461 and 1.0386 and 0.3452 and 0.5698 and 0.3492 and 0.6477
PAG (Male Wistar rats; [10]): 0.2393 and 0.4349 and 0.5528 and 0.5649 and 0.8171 and 0.3201 and 0.5236 and 0.6045 and 0.4646 and 0.2537
PAG (Male Wistar rats; Low_Dose group, Time −144 (7 days before treatment)): 0.8210 and 1.1559 and 0.9260 and 0.7456 and 0.8081 and 0.6038 and 1.5903 and 1.1241 and 0.9275 and 0.8848
potential to induce phospholipidosis [1]: high potential
recovery of phospholipidosis 168 hours after application (lymphocytes; 300 mg/kg/day): partial or complete recovery
phospholipidosis severity (group assessment) (lymphocytes; 300 mg/kg/day, necropsied 48 hours after application): minimal to slight
incidence of affected lymphocytes (range over animals) (lymphocytes; 300 mg/kg/day, necropsied 48 hours after application, data from 3 animals): 5-12%
incidence of affected lymphocytes (range over animals) (lymphocytes; [13]): 0-1%
phospholipidosis severity (group assessment) (lymphocytes; [13]): minimal or not present
recovery of phospholipidosis within 168 hours after application (lymphocytes; 1500 mg/kg/day): no indications of recovery
lymphocytes affected (range) (lymphocytes; 1500 mg/kg/day, both time points (48 and 168 hours)): 15-31%
phospholipidosis severity (group assessment) (lymphocytes; 1500 mg/kg/day, necropsied 48 hours after application): moderate to marked
incidence of affected lymphocytes (range over animals) (lymphocytes; 1500 mg/kg/day, necropsied 48 hours after application, data from 4 animals): 15-31%
phospholipidosis severity (group assessment) (lymphocytes; 1500 mg/kg/day, sacrificed 168 hours after application): moderate to marked
incidence of affected lymphocytes (range over animals) (lymphocytes; 1500 mg/kg/day, sacrificed 168 hours after application, data from 4 animals): 21-31%
Result, PL (grade of severity of phospholipidosis) (lymphocytes; [14]): 1 (≦5%: minimal) and 2 (>5-15%: slight) (2×)
lymphocytes %, pos. (lymphocytes; [14]): 5% and 5.7% and 12.2%
lymphocytes positive (with lamellar bodies) (lymphocytes; [14]): 10 and 8 and 23
Result, PL (grade of severity of phospholipidosis) (lymphocytes; [15]): 1 (≦5%: minimal)
lymphocytes %, pos. (lymphocytes; [15]): 0% (2×) and 1.1% and 1% and 0.8%
lymphocytes positive (with lamellar bodies) (lymphocytes; [15]): 0 (2×) and 2 (2×) and 1
Result, PL (grade of severity of phospholipidosis) (lymphocytes; [16]): 3 (>15-25%: moderate) (2×) and 4 (>25: marked) (2×) and (2) (>5-15%: slight)
lymphocytes %, pos. (lymphocytes; [16]): 18.8% and 15.1% and 31% and (5.8) % and 25.7%
lymphocytes positive (with lamellar bodies) (lymphocytes; [16]): 36 and 19 and 61 and (3) and 29
Result, PL (grade of severity of phospholipidosis) (lymphocytes; [17]): 4 (>25: marked) (2×) and 3 (>15-25%: moderate) (2×)
lymphocytes %, pos. (lymphocytes; [17]): 31% and 21% and 28.2% and 24%
lymphocytes positive (with lamellar bodies) (lymphocytes; [17]): 62 and 42 and 29 and 25
lymphocytes containing cytoplasmic lamellar bodies (finding in words) (lymphocytes): seen and occurred dose dependently

dose dependant change of PAG levels in urine (Male Wistar rats; [12]): No significant dose dependant change
pKa (basic pKa value): 4.07
SMILES: CN(C(=O)C(C)(C)c1cc(C(F)(F)F)cc(C(F)(F)F)c1)c1cnc(N2CCOCC2)cc1-c1ccccc1Cl [Compound 2, 2-(3,5-Bis-trifluoromethyl-phenyl)-N-[4-(2-chloro-phenyl)-6-morpholin-4-yl-pyridin-3-yl]-N-methyl-isobutyramide]
PAG (Male Wistar rats; [2]): 0.3191 and 0.4082 and 0.1757 and 0.4688 and 0.3904 and 0.3807 and 0.4568 and 0.5015 and 0.3805 and 0.4405
PAG (Male Wistar rats; [3]): 0.6552 and 0.2654 and 0.3244 and 0.3661 and 0.5090 and 0.8253 and 0.6223 and 0.6794 and 0.5865 and 0.5553
PAG (Male Wistar rats; [4]): 0.4048 and 0.3363 and 0.1408 and 0.3750 and 0.4284 and 0.6538 and 0.4408 and 0.2588 and 0.4111 and 0.3592
PAG (Male Wistar rats; [5]): 0.6280 and 0.3499 and 0.4531 and 0.5078 and 0.6008 and 0.3961 and 0.6035 and 0.5396 and 0.6968
PAG (Male Wistar rats; High_Dose group, Time −40 (2 days before treatment)): 0.5320 and 0.2568 and 0.4805 and 0.4717 and 0.4514 and 0.4760 and 0.6419 and 0.7515 and 0.6794 and 0.7696
PAG (Male Wistar rats; [6]): 0.6632 and 0.5179 and 0.2795 and 0.6376 and 0.3104 and 0.3524 and 0.4991 and 0.5273 and 0.2959 and 0.3191
PAG (Male Wistar rats; [7]): 0.8897 and 0.6310 and 0.3915 and 1.2919 and 0.3580 and 0.9744 and 0.3039 and 0.7208 and 0.6353 and 0.4304
PAG (Male Wistar rats; [8]): 0.6934 and 0.3762 and 0.4835 and 0.8446 and 0.3743 and 0.5615 and 0.3777 and 0.4892 and 0.3393 and 0.4166
PAG (Male Wistar rats; [9]): 0.6453 and 0.3298 and 0.3762 and 0.7958 and 0.1879
PAG (Male Wistar rats; [10]): 1.0275 and 1.1002 and 0.4610 and 1.3440 and 0.2541 and 0.7357 and 0.5260 and 0.6162 and 0.5218 and 0.4132
PAG (Male Wistar rats; Low_Dose group, Time −40 (2 days before treatment)): 0.3418 and 0.5238 and 0.5336 and 0.7115 and 0.6105 and 0.5232
PAG levels of both dose groups versus time matched controls (Male Wistar rats; rat, single oral dose 300 and 1000 mg/kg): comparable to their time matched controls
potential to induce phospholipidosis [1]: low potential
lymphocytes %, pos. (lymphocytes; [18]): 0%
lymphocytes positive (with lamellar bodies) (lymphocytes; [18]): 0
lymphocytes %, pos. (lymphocytes; [19]): 0%
lymphocytes positive (with lamellar bodies) (lymphocytes; [19]): 0
lymphocytes containing cytoplasmic lamellar bodies (finding in words) (lymphocytes): did not show any lymphocytes with lamellar bodies; also recorded: not affected; also recorded: did not show any lymphocytes containing cytoplasmic lamellar bodies
